# Measurements taken from patent publication US7271170B2, “Imidazo-pyrimidines and triazolo-pyrimidines: benzodiazepine receptor ligands” (Neurogen Corporation, priority 2003, dated 2007).
# Target: benzodiazepine site of the GABAA receptor
# Assay: Ligand binding assay of Example 6 (3H-Ro15-1788 competition, purified rat cortical membranes)
# Conditions: ligand binding assay of Example 6; Table 5 Ki
row,Ki,SMILES
1,< 1000 nM,"Cc1nc2c(CCCO)c(Cn3ccnc3-c3ncccc3F)ncn2n1 [Compound 228, 3-{7-[2-(3-Fluoro-pyridin-2-yl)-imidazol-1-ylmethyl]-2-methyl-[1,2,4]triazolo[1,5-c]pyrimidin-8-yl}-propan-1-ol]"
2,< 1000 nM,"Cc1nc2c(CCF)c(Cn3ccnc3-c3ncccc3F)ncn2n1 [Compound 229, 8-(2-Fluoro-ethyl)-7-[2-(3-fluoro-pyridin-2-yl)-imidazol-1-ylmethyl]-2-methyl-[1,2,4]triazolo[1,5-c]pyrimidine]"
3,< 1000 nM,"Cc1nc2c(CCCCl)c(Cn3ccnc3-c3ncccc3F)ncn2n1 [Compound 230, 8-(3-Chloro-propyl)-7-[2-(3-fluoro-pyridin-2-yl)-imidazol-1-ylmethyl]-2-methyl-[1,2,4]triazolo[1,5-c]pyrimidine]"
4,< 1000 nM,"Cc1nc2c(CCO)c(Cn3ccnc3-c3ncccc3F)ncn2n1 [Compound 231, 2-{7-[2-(3-Fluoro-pyridin-2-yl)-imidazol-1-ylmethyl]-2-methyl-[1,2,4]triazolo[1,5-c]pyrimidin-8-yl}-ethanol]"
5,< 1000 nM,"Cc1nc2c(CCCF)c(Cn3ccnc3-c3ncccc3F)ncn2n1 [Compound 232, 8-(3-Fluoro-propyl)-7-[2-(3-fluoro-pyridin-2-yl)-imidazol-1-ylmethyl]-2-methyl-[1,2,4]triazolo[1,5-c]pyrimidine]"
6,< 1000 nM,"FCCCc1c(Cn2ccnc2-c2ncccc2F)ncn2ncnc12 [Compound 233, 8-(3-Fluoro-propyl)-7-[2-(3-fluoro-pyridin-2-yl)-imidazol-1-ylmethyl]-[1,2,4]triazolo[1,5-c]pyrimidine]"
7,< 1000 nM,"CCc1c(Cn2ccnc2-c2ncccc2F)ncn2ncnc12 [Compound 234, 8-ethyl-7-{[2-(3-fluoropyridin-2-yl)-1H-imidazol-1-yl]methyl}[1,2,4]triazolo[1,5-c]pyrimidine]"
8,< 1000 nM,"CCCc1c(Cn2ccnc2-c2cccc(C(F)(F)F)n2)ncn2ncnc12 [Compound 235, 8-Propyl-7-[2-(6-trifluoromethyl-pyridin-2-yl)-imidazol-1-ylmethyl]-[1,2,4]triazolo[1,5-c]pyrimidine]"
9,< 1000 nM,"N#Cc1cccnc1-c1nccn1Cc1ncn2ncnc2c1CCCF [Compound 236, 2-{1-[8-(3-Fluoro-propyl)-[1,2,4]triazolo[1,5-c]pyrimidin-7-ylmethyl]-1H-imidazol-2-yl}-nicotinonitrile]"
10,< 1000 nM,"N#Cc1cccc(-c2nccn2Cc2ncn3ncnc3c2CCCF)n1 [Compound 237, 6-{1-[8-(3-Fluoro-propyl)-[1,2,4]triazolo[1,5-c]pyrimidin-7-ylmethyl]-1H-imidazol-2-yl}-pyridine-2-carbonitrile]"
11,< 1000 nM,"CCCc1c(Cn2ccnc2-c2ncccc2F)ncn2nc(C(=O)OCC)nc12 [Compound 238, 7-[2-(3-Fluoro-pyridin-2-yl)-imidazol-1-ylmethyl]-8-propyl-[1,2,4]triazolo[1,5-c]pyrimidine-2-carboxylic acidethyl ester]"
12,< 1000 nM,"CCCc1c(Cn2ccnc2-c2ncccc2F)ncn2nc(C(N)=O)nc12 [Compound 239, 7-[2-(3-Fluoro-pyridin-2-yl)-imidazol-1-ylmethyl]-8-propyl-[1,2,4]triazolo[1,5-c]pyrimidine-2-carboxylic acidamide]"
13,< 1000 nM,"CCCc1c(Cn2ccnc2-c2ncccc2F)ncn2nc(C#N)nc12 [Compound 240, 7-[2-(3-Fluoro-pyridin-2-yl)-imidazol-1-ylmethyl]-8-propyl-[1,2,4]triazolo[1,5-c]pyrimidine-2-carbonitrile]"
14,< 1000 nM,"CCCc1c(Cn2cc(Cl)nc2-c2ncccc2F)ncn2ncnc12 [Compound 241, 7-[4-Chloro-2-(3-fluoro-pyridin-2-yl)-imidazol-1-ylmethyl]-8-propyl-[1,2,4]triazolo[1,5-c]pyrimidine]"
15,< 1000 nM,"CCCc1c(Cn2ccnc2-c2ncccc2C#N)ncn2nc(C)nc12 [Compound 242, 2-[1-(2-methyl-8-propyl-[1,2,4]triazolo[1,5-c]pyrimidin-7-ylmethyl)-1H-imidazol-2-yl]-nicotinonitrile]"
16,< 1000 nM,"CCOc1c(Cn2ccnc2-c2ncccc2F)ncn2nc(C)nc12 [Compound 243, 8-Ethoxy-7-[2-(3-fluoro-pyridin-2-yl)-imidazol-1-ylmethyl]-2-methyl-[1,2,4]triazolo[1,5-c]pyrimidine]"

# Further lines, the compound ahead of its results:
row,SMILES,Ki
1,"CCCc1c(Cn2ccnc2-c2cccc(F)n2)nc(C)n2nc(C)nc12 [Compound 217, 7-[2-(6-Fluoro-pyridin-2-yl)-imidazol-1-ylmethyl]-2,5-dimethyl-8-propyl-[1,2,4]triazolo[1,5-c]pyrimidine]",< 1000 nM
2,"CCCc1c(Cn2ccnc2-c2cccc(F)n2)nc(C)n2nc(CC)nc12 [Compound 218, 2-Ethyl-7-[2-(6-fluoro-pyridin-2-yl)-imidazol-1-ylmethyl]-5-methyl-8-propyl-[1,2,4]triazolo[1,5-c]pyrimidine]",< 1000 nM
3,"CCc1nc2c(CC)c(Cn3ccnc3-c3cc(F)ccc3C)ncn2n1 [Compound 219, 2,8-Diethyl-7-[2-(5-fluoro-2-methyl-phenyl)-imidazol-1-ylmethyl]-[1,2,4]triazolo[1,5-c]pyrimidine]",< 1000 nM
4,"COCc1c(Cn2ccnc2-c2ncccc2F)ncn2nc(C)nc12 [Compound 220, 7-[2-(3-Fluoro-pyridin-2-yl)-imidazol-1-ylmethyl]-8-methoxymethyl-2-methyl-[1,2,4]triazolo[1,5-c]pyrimidine]",< 1000 nM
5,"CCC(O)c1c(Cn2ccnc2-c2cccc(F)n2)ncn2nc(C)nc12 (stereo not drawn) [Compound 221, 1-{7-[2-(6-Fluoro-pyridin-2-yl)-imidazol-1-ylmethyl]-2-methyl-[1,2,4]triazolo[1,5-c]pyrimidin-8-yl}-propan-1-ol]",< 1000 nM
6,"CCC(O)c1c(Cn2ccnc2-c2ncccc2F)ncn2nc(C)nc12 (stereo not drawn) [Compound 222, 1-{7-[2-(3-Fluoro-pyridin-2-yl)-imidazol-1-ylmethyl]-2-methyl-[1,2,4]triazolo[1,5-c]pyrimidin-8-yl}-propan-1-ol]",< 1000 nM
7,"CCCc1c(Cn2ccnc2-c2ncccc2F)ncn2nc(CO)nc12 [Compound 223, {7-[2-(3-Fluoro-pyridin-2-yl)-imidazol-1-ylmethyl]-8-propyl-[1,2,4]triazolo[1,5-c]pyrimidin-2-yl}-methanol]",< 1000 nM
8,"C/C=C/c1c(Cn2ccnc2-c2ncccc2F)ncn2nc(C)nc12 [Compound 224, 7-[2-(3-Fluoro-pyridin-2-yl)-imidazol-1-ylmethyl]-2-methyl-8-propenyl-[1,2,4]triazolo[1,5-c]pyrimidine]",< 1000 nM
9,"CCCc1c(Cn2ccnc2-c2ncccc2F)ncn2nc(-c3cccnc3)nc12 [Compound 225, 7-[2-(3-Fluoro-pyridin-2-yl)-imidazol-1-ylmethyl]-8-propyl-2-pyridin-3-yl-[1,2,4]triazolo[1,5-c]pyrimidine]",< 1000 nM
10,"Cc1nc2c(CCCOCc3ccccc3)c(Cn3ccnc3-c3ncccc3F)ncn2n1 [Compound 226, 8-(3-Benzyloxy-propyl)-7-[2-(3-fluoro-pyridin-2-yl)-imidazol-1-ylmethyl]-2-methyl[1,2,4]triazolo[1,5-c]pyrimidine]",< 1000 nM
11,"Cc1nc2c(CCOCc3ccccc3)c(Cn3ccnc3-c3ncccc3F)ncn2n1 [Compound 227, 8-(2-Benzyloxy-ethyl)-7-[2-(3-fluoro-pyridin-2-yl)-imidazol-1-ylmethyl]-2-methyl-[1,2,4]triazolo[1,5-c]pyrimidine]",< 1000 nM
